Experimental data from patent publication US6362369B1, “Phthalic acid diamide derivatives fluorine-containing aniline compounds as starting material, agricultural and horticultural insecticides, and a method for application of the insecticides” (Nihon Nohyaku Co., Ltd., priority 1997, dated 2002).

tested on: diamondback moth (Plutella xylostella); experiment: Insecticidal effect on diamondback moth (Test Example 1); type: in vivo; details: mortality judged according to the criterion shown in Test Example 1
Protocol: Insecticidal effect on diamondback moth (Plutella xylostella) Adult diamondback moths were released and allowed to oviposit on a Chinese cabbage seedling. […] After air-drying, it was allowed to stand in a room thermostated at 25° C. Six days after the immersion, the hatched insects were counted. The mortality was calculated according to the following equation and the insecticidal effect was judged according to the criterion shown below. The test was carried out with triplicate groups of 10 insects. [table]

| SMILES | Insecticidal effect on diamondback moth (Test Example 1), judged grade |
| --- | --- |
| Cc1cc(Oc2ncc(C(F)(F)F)cc2Cl)ccc1NC(=O)c1c(I)cccc1C(=O)NC(C)C [compound 461] | A (100) |
| Cc1cc(SC(C)C)ccc1NC(=O)c1c(I)cccc1C(=O)NC(C)C [compound 462] | A (100) |
| Cc1cc(Sc2ccc(Cl)cc2)ccc1NC(=O)c1c(I)cccc1C(=O)NC(C)C [compound 463] | A (100) |
| CC(C)NC(=O)c1cccc(I)c1C(=O)Nc1ccc(OC(F)F)cc1C(F)(F)F [compound 465] | A (100) |
| CC(C)NC(=O)c1c(F)cccc1C(=O)Nc1ccc(SCC(F)(F)F)cc1 [compound 478] | A (100) |
| CC(C)NC(=O)c1c(F)cccc1C(=O)Nc1cc(Cl)c(OC(F)F)c(Cl)c1 [compound 506] | A (100) |
| Cc1cc(Oc2c(F)c(F)c(F)c(F)c2F)ccc1NC(=O)c1cccc(F)c1C(=O)NC(C)C [compound 520] | A (100) |
| CC(C)NC(=O)c1cccc(F)c1C(=O)Nc1ccc(OC(F)(F)F)cc1 [compound 537] | A (100) |
| CC(C)NC(=O)c1cccc(F)c1C(=O)Nc1ccc(SCC(F)(F)F)cc1 [compound 539] | A (100) |
| CC(C)NC(=O)c1cccc(F)c1C(=O)Nc1ccc(SC(F)(F)C(F)F)cc1 [compound 540] | A (100) |
| Cc1cc(OC(F)F)ccc1NC(=O)c1c(F)cccc1C(=O)NC(C)C [compound 559] | A (100) |
| CC(C)NC(=O)c1cccc(F)c1C(=O)Nc1cc(Cl)c(OC(F)F)c(Cl)c1 [compound 560] | A (100) |
| Cc1cc(Oc2c(F)c(F)c(F)c(F)c2F)ccc1NC(=O)c1c(F)cccc1C(=O)NC(C)C [compound 573] | A (100) |
| CC(C)NC(=O)c1c(C(=O)Nc2cccc(Cl)c2)cccc1[N+](=O)[O-] [compound 587] | A (100) |
| CC(C)NC(=O)c1c(C(=O)Nc2ccc(Cl)cc2)cccc1[N+](=O)[O-] [compound 588] | A (100) |
| CC(C)NC(=O)c1c(C(=O)Nc2cccc(Br)c2)cccc1[N+](=O)[O-] [compound 590] | A (100) |
| CC(C)NC(=O)c1c(C(=O)Nc2ccccc2F)cccc1[N+](=O)[O-] [compound 592] | A (100) |
| CC(C)NC(=O)c1c(C(=O)Nc2cccc(F)c2)cccc1[N+](=O)[O-] [compound 593] | A (100) |
| CC(C)NC(=O)c1c(C(=O)Nc2ccc(F)cc2)cccc1[N+](=O)[O-] [compound 594] | A (100) |
| CC(C)NC(=O)c1c(C(=O)Nc2cccc(C#N)c2)cccc1[N+](=O)[O-] [compound 597] | B (99-90) |
| CC(C)NC(=O)c1c(C(=O)Nc2ccc(C#N)cc2)cccc1[N+](=O)[O-] [compound 598] | A (100) |

| SMILES | Insecticidal effect on diamondback moth (Test Example 1), judged grade |
| --- | --- |
| Cc1cccc(NC(=O)c2cccc([N+](=O)[O-])c2C(=O)NC(C)C)c1 [compound 600] | A (100) |
| Cc1ccc(NC(=O)c2cccc([N+](=O)[O-])c2C(=O)NC(C)C)cc1 [compound 601] | A (100) |
| CC(C)NC(=O)c1c(C(=O)Nc2ccccc2C(F)(F)F)cccc1[N+](=O)[O-] [compound 608] | A (100) |
| COc1cccc(NC(=O)c2cccc([N+](=O)[O-])c2C(=O)NC(C)C)c1 [compound 613] | A (100) |
| COc1ccc(NC(=O)c2cccc([N+](=O)[O-])c2C(=O)NC(C)C)cc1 [compound 614] | A (100) |
| CC(C)NC(=O)c1c(C(=O)Nc2cccc(OC(C)C)c2)cccc1[N+](=O)[O-] [compound 615] | A (100) |
| CSc1cccc(NC(=O)c2cccc([N+](=O)[O-])c2C(=O)NC(C)C)c1 [compound 621] | A (100) |
| CSc1ccccc1NC(=O)c1cccc([N+](=O)[O-])c1C(=O)NC(C)C [compound 622] | A (100) |
| CC(C)NC(=O)c1c(C(=O)Nc2ccc(SCC(F)(F)F)cc2)cccc1[N+](=O)[O-] [compound 624] | A (100) |
| CC(C)NC(=O)c1c(C(=O)Nc2ccc(SC(F)(F)C(F)F)cc2)cccc1[N+](=O)[O-] [compound 626] | A (100) |
| CC(C)NC(=O)c1c(C(=O)Nc2cc(Cl)cc(Cl)c2)cccc1[N+](=O)[O-] [compound 637] | A (100) |
| CC(C)NC(=O)c1c(C(=O)Nc2cccc(F)c2F)cccc1[N+](=O)[O-] [compound 638] | B (99-90) |
| CC(C)NC(=O)c1c(C(=O)Nc2ccc(F)cc2F)cccc1[N+](=O)[O-] [compound 639] | A (100) |
| CC(C)NC(=O)c1c(C(=O)Nc2cc(F)ccc2F)cccc1[N+](=O)[O-] [compound 640] | A (100) |
| CC(C)NC(=O)c1c(C(=O)Nc2ccc(F)c(F)c2)cccc1[N+](=O)[O-] [compound 642] | A (100) |
| CC(C)NC(=O)c1c(C(=O)Nc2ccc(F)c(F)c2F)cccc1[N+](=O)[O-] [compound 645] | A (100) |
| Cc1cccc(C)c1NC(=O)c1cccc([N+](=O)[O-])c1C(=O)NC(C)C [compound 650] | A (100) |
| Cc1cc(C)c(NC(=O)c2cccc([N+](=O)[O-])c2C(=O)NC(C)C)c(C)c1 [compound 652] | A (100) |
| CCc1cccc(CC)c1NC(=O)c1cccc([N+](=O)[O-])c1C(=O)NC(C)C [compound 653] | A (100) |
| Cc1cc(NC(=O)c2cccc([N+](=O)[O-])c2C(=O)NC(C)C)c(F)cc1Cl [compound 657] | D (79-50) |
| CC(C)NC(=O)c1c(C(=O)Nc2ccc(OC(F)F)c(Cl)c2)cccc1[N+](=O)[O-] [compound 658] | A (100) |

| SMILES | Insecticidal effect on diamondback moth (Test Example 1), judged grade |
| --- | --- |
| CC(C)NC(=O)c1c(C(=O)Nc2cc(Cl)c(OC(F)F)c(Cl)c2)cccc1[N+](=O)[O-] [compound 659] | A (100) |
| CC(C)NC(=O)c1c(C(=O)Nc2c(Cl)cc(C(F)(F)F)cc2Cl)cccc1[N+](=O)[O-] [compound 662] | A (100) |
| Cc1cc(Cl)c(Cl)cc1NC(=O)c1cccc([N+](=O)[O-])c1C(=O)NC(C)C [compound 668] | A (100) |
| Cc1ccc(Br)cc1NC(=O)c1cccc([N+](=O)[O-])c1C(=O)NC(C)C [compound 672] | A (100) |
| CCc1ccc(F)cc1NC(=O)c1cccc([N+](=O)[O-])c1C(=O)NC(C)C [compound 677] | A (100) |
| CC(C)NC(=O)c1c(C(=O)Nc2ccc(Cl)c(C(F)(F)F)c2)cccc1[N+](=O)[O-] [compound 678] | A (100) |
| Cc1ccc([N+](=O)[O-])cc1NC(=O)c1cccc([N+](=O)[O-])c1C(=O)NC(C)C [compound 708] | D (79-50) |
| CSc1ccc(NC(=O)c2cccc([N+](=O)[O-])c2C(=O)NC(C)C)c(C)c1C [compound 720] | A (100) |
| Cc1cc(SC(C)C)ccc1NC(=O)c1cccc([N+](=O)[O-])c1C(=O)NC(C)C [compound 721] | A (100) |
| CC(C)NC(=O)c1c(C(=O)Nc2ccc3c(c2)OCO3)cccc1[N+](=O)[O-] [compound 733] | A (100) |
| CC(C)NC(=O)c1c(C(=O)Nc2ccc3c(c2)nc(C(F)(F)F)n3C)cccc1[N+](=O)[O-] [compound 737] | A (100) |
| Cc1ccc(Cl)cc1NC(=O)c1cc([N+](=O)[O-])ccc1C(=O)NC(C)C [compound 738] | D (79-50) |
| Cc1cc(C(F)(F)F)ccc1NC(=O)c1c(C(=O)NC(C)C)cccc1[N+](=O)[O-] [compound 742] | A (100) |
| Cc1cc(OC(F)(F)C(F)C(F)(F)F)ccc1NC(=O)c1c(C(=O)NC(C)C)cccc1[N+](=O)[O-] (centres unmarked) [compound 743] | D (79-50) |
| Cc1cc(Cl)ccc1NC(=O)c1cccc(C#N)c1C(=O)NC(C)C [compound 744] | C (89-80) |
| Cc1cc(Cl)ccc1NC(=O)c1c(C#N)cccc1C(=O)NC(C)C [compound 745] | D (79-50) |
| Cc1cccc(C(=O)Nc2ccc(OC(F)(F)F)cc2)c1C(=O)NC(C)C [compound 749] | A (100) |
| Cc1ccc(Cl)cc1NC(=O)c1c(C(=O)NC(C)C)cccc1C(F)(F)F [compound 766] | A (100) |
| Cc1cc(Cl)ccc1NC(=O)c1cccc([S+]([O-])C(C)C)c1C(=O)NC(C)C (centres unmarked) [compound 793] | A (100) |
| Cc1cc(Cl)ccc1NC(=O)c1cccc(S(=O)(=O)C(C)C)c1C(=O)NC(C)C [compound 796] | A (100) |
